Measured values as given in patent US11779014B2, “Adjuvants” (SYNGENTA PARTICIPATIONS AG, priority 2017, dated 2023).

Legend:
[1] = De-gelling temperature of aqueous surfactant blends by low shear rheology (Bohlin Gemini rheometer, storage modulus vs temperature); type: physicochemical; conditions: for Degelling temperature: Table 18
Procedure: The temperatures at which blends of capped and uncapped surfactants de-gel were determined by standard low shear rheology with a Bohlin™ Gemini rheometer. The storage modulus (G′) at 1 Hz was determined at a strain of 0.001-0.002 in a standard C14 cup and bob geometry over a temperature range of 5-70° C., the exact range depending on the de-gelling point of the sample. Plots of storage modulus versus temperature were constructed and the de-gelling temperature was taken to be the point at which the modulus begins to fall rapidly from its high value in the gelled state (typically ca. 10^5 Pa) down to the final value in the de-gelled state (less than 10 Pa). Blends of surfactants were prepared at from 25 to 40% w/w total surfactant concentration in water. Samples were left in an oven at 55° C. for several days to ensure that the mixtures were homogeneous. Samples were placed in the C14 cup and the samples were de-gelled by raising the temperature in the rheometer, the bob was then inserted and the sample was then cooled at 1° C./min, whilst the storage modulus was regularly recorded during the cooling. Once the final temperature had been reached (i.e. when the sample had gelled), the temperature was then increased again and the modulus again recorded. The de-gelling temperature was determined from the increasing temperature cycle.
Degelling temperatures—the measurements relied on the same method as for ‘Example 1’ but just at 30% w/w total surfactant concentration.
De-gelling temperatures were measured using the same method as in Example 1.
(§1) This example provides de-gelling, cloud point and adjuvancy data for dodecyl 23 ethoxylate with n-hexyl cap and hexadecyl 20 ethoxylate with n-hexyl cap Cloud points were measured as described in example 1 for 1% aqueous solutions of the capped and uncapped surfactants both individually and as blends (see Table 30). Degelling temperatures were also measured as outlined in example 1 for 25, 30, 35 and 40% aqueous solutions of the capped and uncapped surfactants both individually and as blends (see Table 31).
(§2) This example provides de-gelling, cloud point and adjuvancy data for oleyl 20 ethoxylate with n-butyl, n-pentyl or benzyl ether caps end capped oleyl 20 ethoxylate. Cloud points were measured as described in example 1 for 1% aqueous solutions of the capped and uncapped surfactants both individually and as blends. Degelling temperatures were also measured as outlined in example 1 for 25, 30, 35 and 40% aqueous solutions o of the capped and uncapped surfactants both individually and as blends.

[2] = Cloud point measurement (absorbance at 500 nm as a function of temperature); type: physicochemical
Procedure: Consistent with the standard method for measuring the cloud point of surfactants, the cloud point of each of the above blends was measured at a total concentration of 1% w/w in water using a Perkin Elmer spectrophotometer fitted with a PTP6 temperature controller. The absorbance of the solution at 500 nm wavelength was determined as a function of temperature. The cloud point was recorded as the onset of a rapid increase in absorbance as the solution began to cloud.
Cloud point—the measurements relied on the same method as for ‘Example 1’
Cloud points—were measured using the same method as in Example 1.
as §1, §2

[3] = system: Chenopodium album (CHEAL); assay: Glasshouse adjuvancy test for nicosulfuron on CHEAL; type: in vivo
Procedure: The biological efficacies of blends of an oleyl 20 ethoxylate uncapped surfactant with an oleyl 20 ethoxylate surfactant with an n-hexyl ether cap as adjuvants for the herbicide nicosulfuron were tested in a glasshouse against three weed species sown into standard soil in pots and cultivated under controlled conditions in a glasshouse (24/18° C. day/night; 16 hours light; 65% humidity). Nicosulfuron was added to the spray tank as a standard WG (water dispersible granule) formulation. The plants were sprayed with nicosulfuron at rates of 15 or 60 grams of pesticide per hectare using a laboratory track sprayer which delivered the aqueous spray composition at a rate of 200 litres per hectare, using a flat fan nozzle (Teejet 11002VS) at 2 bar. The adjuvants were added to the spray solution at a total rate of 0.1 or 0.2% w/v in all cases and at extra lower rates for the oleyl 20EO alone and its 1:1 blend with the oleyl 20EO n-hexyl ether to show the dose response to these adjuvants. All spray solutions also contained 10% w/w of iso-propanol. The weed species and their BBCH growth stage at spraying were Chenopodium album (CHEAL; growth stage 15), Digitaria sanguinalis (DIGSA; growth stage 14), and Commelina benghalensis (COMBE; growth stage 14). Each spray test was replicated three times. The test plants were then grown in a glasshouse under controlled conditions (24/18° C. day/night; 16 hours light; 65% humidity) and watered twice a day. The efficacy of the herbicide was assessed visually and expressed as a percentage of the leaf area killed. Samples were assessed at a time period of 21 days following application. The following tables (3-8) show the effect of blends of the two surfactants at a total concentration of 0.2 and 0.1%. In each case the blends were 1:0, 3:1, 1:1, 1:3 and 0:1 w/w of oleyl 20EO:oleyl 20 EO n-hexyl ether.
The biological efficacies of blends of oleyl 20 ethoxylate and oleyl 20EO ethoxylate with a benzoate cap as adjuvants for the herbicide nicosulfuron were tested in a glasshouse using the same method as for ‘Example 1’ but against just two weed species and with just 0.2% w/v total adjuvant concentration. The weed species and their BBCH growth stage at spraying HI were Chenopodium album (CHEAL; growth stage 13-15) and Digitaria sanguinalis (DIGSA; growth stage 14-22).
The biological efficacies of 1:1 blends of an oleyl 20 ethoxylate uncapped surfactant with oleyl 20E ethoxylate surfactants with hexanoyl, n-octanoyl or 2-ethyl hexanoyl ester caps as adjuvants for the herbicide nicosulfuron were tested in a glasshouse using the same method as for ‘Example 1’ but against just one weed species and at 0.2% w/v tital adjuvant concentration. The weed species and its BBCH growth stage at spraying was Chenopodium album (CHEAL; growth stage 15).

[4] = total surfactant concentration 25% w/w in water, Table 1
[5] = total surfactant concentration 30% w/w in water, Table 1
[6] = total surfactant concentration 35% w/w in water, Table 1
[7] = total surfactant concentration 40% w/w in water, Table 1
[8] = total concentration 1% w/w in water, Table 2
[9] = nicosulfuron 15 g ai/ha, 0.1% total surfactant concentration, 21 days, Table 6
[10] = nicosulfuron 15 g ai/ha, 0.2% total surfactant concentration, 21 days, Table 5
[11] = nicosulfuron 60 g ai/ha, 0.1% total surfactant concentration, 21 days, Table 6
[12] = nicosulfuron 60 g ai/ha, 0.2% total surfactant concentration, 21 days, Table 5

Oleyl 20EO n-hexyl ether
De-gelling temperature [1, 4]: 5.0 °C | De-gelling temperature [1, 5]: 5.0 °C | De-gelling temperature [1, 6]: 5.0 °C | De-gelling temperature [1, 7]: 16.7 °C | Cloud point [2, 8]: 52.0 °C | Mean control [3, 9]: 85% | Mean control [3, 10]: 81.7% | Mean control [3, 11]: 85% | Mean control [3, 12]: 88.3%

CCCCCCCC/C=C\CCCCCCCCOCCOCCOCCOCCOCCOCCOCCOCCOCCOCCOCCOCCOCCOCCOCCOCCOCCOCCOCCOCCO [Oleyl 20EO, oleyl 20 ethoxylate]
De-gelling temperature ([1]; 30% w/w total surfactant concentration, Table 15): 42.4 °C | De-gelling temperature ([1]; 40% w/w, Table 19): 66.3 °C | De-gelling temperature [1, 4]: 26.9 °C | Degelling temperature ([1]; total surfactant concentration 25% w/w): 26.9 °C | De-gelling temperature ([1]; total surfactant concentration 25% w/w, Table 35): 23.3 °C | De-gelling temperature [1, 5]: 45.2 °C | Degelling temperature ([1]; total surfactant concentration 30% w/w): 45.2 °C | De-gelling temperature ([1]; total surfactant concentration 30% w/w, Table 35): 40.9 °C | De-gelling temperature [1, 6]: 51.3 °C | Degelling temperature ([1]; total surfactant concentration 35% w/w): 51.3 °C | De-gelling temperature ([1]; total surfactant concentration 35% w/w, Table 35): 56.7 °C | De-gelling temperature [1, 7]: 70.6 °C | Degelling temperature ([1]; total surfactant concentration 40% w/w): 70.6 °C | De-gelling temperature ([1]; total surfactant concentration 40% w/w, Table 35): 63.1 °C | Cloud point ([2]; 1% aqueous solutions, Table 34): >90.0 °C | Cloud point ([2]; 1%, Table 15): >95.0 °C | Cloud point ([2]; 1%, Table 20): >95.0 °C | Cloud point [2, 8]: >90 °C | Mean control ([3]; dose response, nicosulfuron 15 g ai/ha, adjuvant 0.05%): 81.7% | Mean control ([3]; dose response, nicosulfuron 15 g ai/ha, adjuvant 0.1%): 86.7% | Mean control ([3]; dose response, nicosulfuron 15 g ai/ha, adjuvant 0.2%): 83.3% | Mean control ([3]; dose response, nicosulfuron 60 g ai/ha, adjuvant 0.05%): 83.3% | Mean control ([3]; dose response, nicosulfuron 60 g ai/ha, adjuvant 0.1%): 80.0% | Mean control ([3]; dose response, nicosulfuron 60 g ai/ha, adjuvant 0.2%): 80.0% | Mean control [3, 9]: 86.7% | Mean control [3, 10]: 83.3% | Mean control ([3]; nicosulfuron 15 g ai/ha, 0.2% w/v total adjuvant, Example 3, growth stage 13-15): 66.7% | Mean control ([3]; nicosulfuron 15 g ai/ha, 0.2% w/v total adjuvant, Example 4, growth stage 15): 76.8% | Mean control [3, 11]: 80% | Mean control [3, 12]: 80% | Mean control ([3]; nicosulfuron 60 g ai/ha, 0.2% w/v total adjuvant, Example 3, growth stage 13-15): 68.3% | Mean control ([3]; nicosulfuron 60 g ai/ha, 0.2% w/v total adjuvant, Example 4, growth stage 15): 71.7%
